SMILES strings stand for the structures.

In one test the target is T1, NBD1 (Homo sapiens, UniProt P13569).
T1 construct: Purified recombinant NBD1 was produced using previously described methods; made in house
The test is described as follows: Aggregation analysis using differential static light scattering (DSLS), thermal stability of NBD1 (ΔTagg). To be noted: ΔTagg versus DMSO control, NBD1 0.2 mg/ml. Format: binding. An outline of the steps: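 Thermal aggregation of purified NBD1 was followed by static light scattering during a 1° C./min ramp to 70° C. Protein was at 0.2 mg/ml with 2 mM ATP at pH7.6. Each compound's Tagg was referenced to DMSO controls.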

The target in the next test is T2, CFTR (Homo sapiens, UniProt P13569, DEL508-508).
T2 construct: Primary human bronchial epithelial cells from a ΔF508 homozygous CF donor; host or cells: primary human bronchial epithelial cells (CF-HBE), ΔF508 homozygous donor
The test is described as follows: TECC24 AUC fold over DMSO @10 μM, CFTR-mediated transepithelial chloride transport in CF-HBE cells. The format is cell-based. To be noted: test agent AUC divided by DMSO vehicle AUC, primary CF-HBE cells, ΔF508 homozygous donor, 48 hours incubation. An outline of the steps:
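Value is ratio of test-agent to DMSO AUC of equivalent transepithelial Cl− current, integrated from forskolin (10 μM) stimulation to CFTR inhibitor-172 (20 μM) block, with benzamil 10 μM present. CF-HBE (ΔF508/ΔF508) cultures had 48 h compound exposure at 10 μM, 36.5° C before recording.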

T2 sequence (P13569 with tags, fused parts or gaps DEL508-508): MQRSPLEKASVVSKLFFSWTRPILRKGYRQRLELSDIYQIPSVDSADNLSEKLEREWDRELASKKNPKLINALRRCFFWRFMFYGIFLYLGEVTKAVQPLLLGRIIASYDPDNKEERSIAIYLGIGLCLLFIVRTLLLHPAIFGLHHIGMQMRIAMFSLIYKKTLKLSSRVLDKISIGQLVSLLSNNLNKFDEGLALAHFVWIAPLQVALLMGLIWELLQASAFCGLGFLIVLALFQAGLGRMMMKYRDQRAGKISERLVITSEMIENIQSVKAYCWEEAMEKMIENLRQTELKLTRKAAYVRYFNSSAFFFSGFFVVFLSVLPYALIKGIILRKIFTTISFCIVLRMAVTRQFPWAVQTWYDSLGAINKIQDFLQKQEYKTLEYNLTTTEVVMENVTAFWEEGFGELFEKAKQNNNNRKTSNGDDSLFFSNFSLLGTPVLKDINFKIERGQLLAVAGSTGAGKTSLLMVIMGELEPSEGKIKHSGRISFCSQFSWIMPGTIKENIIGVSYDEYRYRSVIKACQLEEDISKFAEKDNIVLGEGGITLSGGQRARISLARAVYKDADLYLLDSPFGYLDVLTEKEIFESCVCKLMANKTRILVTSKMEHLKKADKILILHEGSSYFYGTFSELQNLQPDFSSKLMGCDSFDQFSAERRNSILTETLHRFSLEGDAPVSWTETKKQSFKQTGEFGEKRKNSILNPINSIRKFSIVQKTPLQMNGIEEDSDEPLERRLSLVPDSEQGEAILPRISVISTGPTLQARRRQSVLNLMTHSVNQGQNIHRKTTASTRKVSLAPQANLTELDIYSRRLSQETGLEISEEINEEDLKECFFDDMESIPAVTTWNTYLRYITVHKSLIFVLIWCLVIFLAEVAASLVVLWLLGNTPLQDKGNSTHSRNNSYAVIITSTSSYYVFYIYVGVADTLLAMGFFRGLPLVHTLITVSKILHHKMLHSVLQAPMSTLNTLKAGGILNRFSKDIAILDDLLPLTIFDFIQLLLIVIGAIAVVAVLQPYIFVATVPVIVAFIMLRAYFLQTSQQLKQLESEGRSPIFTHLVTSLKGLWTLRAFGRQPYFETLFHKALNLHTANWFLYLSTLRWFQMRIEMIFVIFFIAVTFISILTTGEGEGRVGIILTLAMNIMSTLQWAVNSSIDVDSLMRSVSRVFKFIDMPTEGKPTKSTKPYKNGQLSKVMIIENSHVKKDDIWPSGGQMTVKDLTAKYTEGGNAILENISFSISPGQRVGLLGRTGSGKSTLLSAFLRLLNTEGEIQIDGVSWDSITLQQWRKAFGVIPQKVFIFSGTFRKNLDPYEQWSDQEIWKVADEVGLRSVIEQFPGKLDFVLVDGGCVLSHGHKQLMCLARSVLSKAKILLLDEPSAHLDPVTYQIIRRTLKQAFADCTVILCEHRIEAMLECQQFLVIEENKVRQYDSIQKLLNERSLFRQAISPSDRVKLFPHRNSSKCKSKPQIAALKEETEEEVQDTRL
T1 sequence (P13569 423-646 limits assumed): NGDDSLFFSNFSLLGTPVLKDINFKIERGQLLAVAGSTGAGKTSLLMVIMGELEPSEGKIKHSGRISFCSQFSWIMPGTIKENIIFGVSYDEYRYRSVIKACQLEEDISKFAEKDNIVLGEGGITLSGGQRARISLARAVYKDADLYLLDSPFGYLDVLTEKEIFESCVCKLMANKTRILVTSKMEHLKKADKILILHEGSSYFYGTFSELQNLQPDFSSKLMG

Turning to `CC(Cc1cccc(C2(C#N)CCCC(C)(C)CS(=O)(=O)CCc3c(c(F)cc4[nH]ccc34)Oc3ccc(F)c(c3)-c3nc2nn3C)c1)C(=O)O` (single isomer, unassigned) [Compound 20B, 3-[3-[6-cyano-22,28-difluoro-3,10,10-trimethyl-12,12-dioxo-24-oxa-12lambda6-thia-3,4,19,30-tetrazapentacyclo[23.3.1.12,5.015,23.016,20]triaconta-1(29),2(30),4,15,17,20,22,25,27-nonaen-6-yl]phenyl]-2-methyl-propanoic acid], the “DSLS 3D (100 μM ΔT)” value on NBD1 is “A (an ΔTagg value less than or equal to 5 °C is marked “A”)”. The “TECC (AUC, 10 μM)” value at CFTR is “A (a TECC value less than 12 is marked “A”)”.
For `CC1(C)CCCC(c2cccc(CCC(=O)O)c2)n2cc(C#N)c(n2)-c2cc(ccc2F)Oc2c(F)cc3[nH]ccc3c2CCS(=O)(=O)C1` (single isomer, unassigned) [Compound 22B, 3-[3-[3-cyano-22,28-difluoro-10,10-dimethyl-12,12-dioxo-24-oxa-12lambda6-thia-5,19,30-triazapentacyclo[23.3.1.12,5.015,23.016,20]triaconta-1(29),2(30),3,15,17,20,22,25,27-nonaen-6-yl]phenyl]propanoic acid], in that order: “A (an ΔTagg value less than or equal to 5 °C is marked “A”)” and “B (a value between 12-20 is marked “B”)”.
As for `CC1(C)CCCC(c2cccc(CCC(=O)O)c2)n2cc(C#N)c(n2)-c2cc(ccc2F)Oc2c(F)cc3[nH]ccc3c2CCS(=O)(=O)C1` (single isomer, unassigned) [Compound 22C, 3-[3-[3-cyano-22,28-difluoro-10,10-dimethyl-12,12-dioxo-24-oxa-12lambda6-thia-5,19,30-triazapentacyclo[23.3.1.12,5.015,23.016,20]triaconta-1(29),2(30),3,15,17,20,22,25,27-nonaen-6-yl]phenyl]propanoic acid], the “DSLS 3D (100 μM ΔT)” value on NBD1 is “C (a value greater than 10 °C and less than or equal to 25 °C is marked “C”)”. The “TECC (AUC, 10 μM)” value at CFTR was “C (a value between 20 and 80 is marked “C”)”.
As to `CC1(C)CCCC(c2cccc(CCC(=O)O)c2)n2ccc(n2)-c2cc(ccc2F)Oc2c(F)cc3[nH]ccc3c2CCS(=O)(=O)C1` (single isomer, unassigned) [Compound 24A, 3-[3-[22,28-difluoro-10,10-dimethyl-12,12-dioxo-24-oxa-12lambda6-thia-5,19,30-triazapentacyclo[23.3.1.12,5.015,23.016,20]triaconta-1(29),2(30),3,15,17,20,22,25,27-nonaen-6-yl]phenyl]propanoic Acid], at NBD1, the “DSLS 3D (100 μM ΔT)” value was “B (a value above 5 °C and less than or equal to 10 °C is marked “B”)”. In addition, the “TECC (AUC, 10 μM)” value on CFTR is reported as “A (a TECC value less than 12 is marked “A”)”.
`CC1(C)CCCC(c2cccc(CCC(=O)O)c2)n2ccc(n2)-c2cc(ccc2F)Oc2c(F)cc3[nH]ccc3c2CCS(=O)(=O)C1` (single isomer, unassigned) [Compound 24B, 3-[3-[22,28-difluoro-10,10-dimethyl-12,12-dioxo-24-oxa-12lambda6-thia-5,19,30-triazapentacyclo[23.3.1.12,5.015,23.016,20]triaconta-1(29),2(30),3,15,17,20,22,25,27-nonaen-6-yl]phenyl]propanoic Acid]: the “DSLS 3D (100 μM ΔT)” value on NBD1 is “C (a value greater than 10 °C and less than or equal to 25 °C is marked “C”)”. Also, the “TECC (AUC, 10 μM)” value on CFTR was “A (a TECC value less than 12 is marked “A”)”.
For `CC1(C)CCCC(C)(c2cccc(CCC(=O)O)c2)c2c[nH]c(n2)-c2cc(ccc2F)Oc2c(F)cc3[nH]ccc3c2CCS(=O)(=O)C1` (single isomer, unassigned) [Compound 27A, 3-[3-(22,28-difluoro-6,10,10-trimethyl-12,12-dioxo-24-oxa-12lambda6-thia-3,19,30-triazapentacyclo[23.3.1.12,5.015,23.016,20]triaconta-1(29),2,4,15,17,20,22,25,27-nonaen-6-yl)phenyl]propanoic acid], at NBD1, the “DSLS 3D (100 μM ΔT)” value is “B (a value above 5 °C and less than or equal to 10 °C is marked “B”)”. Moreover, at CFTR, the “TECC (AUC, 10 μM)” value is on record as “A (a TECC value less than 12 is marked “A”)”.
`CC1(C)CCCC(C)(c2cccc(CCC(=O)O)c2)c2c[nH]c(n2)-c2cc(ccc2F)Oc2c(F)cc3[nH]ccc3c2CCS(=O)(=O)C1` (single isomer, unassigned) [Compound 27B, 3-[3-(22,28-difluoro-6,10,10-trimethyl-12,12-dioxo-24-oxa-12lambda6-thia-3,19,30-triazapentacyclo[23.3.1.12,5.015,23.016,20]triaconta-1(29),2,4,15,17,20,22,25,27-nonaen-6-yl)phenyl]propanoic acid]: the “DSLS 3D (100 μM ΔT)” value on NBD1 is “C (a value greater than 10 °C and less than or equal to 25 °C is marked “C”)”. Besides, the “TECC (AUC, 10 μM)” value at CFTR was “C (a value between 20 and 80 is marked “C”)”.
On to `CC(Cc1cccc(C2(C)CCOC(C)(C)CS(=O)(=O)CCc3c(c(F)cc4[nH]ccc34)Oc3ccc(F)c(c3)-c3nc2nn3C)c1)C(=O)O` (single isomer, unassigned) [Compound 28A, 3-[3-(22,28-difluoro-3,6,10,10-tetramethyl-12,12-dioxo-9,24-dioxa-12lambda6-thia-3,4,19,30-tetrazapentacyclo[23.3.1.12,5.015,23.016,20]triaconta-1(29),2(30),4,15,17,20,22,25,27-nonaen-6-yl)phenyl]-2-methyl-propanoic Acid], for which, at NBD1, the “DSLS 3D (100 μM ΔT)” value is “C (a value greater than 10 °C and less than or equal to 25 °C is marked “C”)”. The “TECC (AUC, 10 μM)” value on CFTR was “C (a value between 20 and 80 is marked “C”)”.
On to `CC(Cc1cccc(C2(C)CCOC(C)(C)CS(=O)(=O)CCc3c(c(F)cc4[nH]ccc34)Oc3ccc(F)c(c3)-c3nc2nn3C)c1)C(=O)O` (single isomer, unassigned) [Compound 28B, 3-[3-(22,28-difluoro-3,6,10,10-tetramethyl-12,12-dioxo-9,24-dioxa-12lambda6-thia-3,4,19,30-tetrazapentacyclo[23.3.1.12,5.015,23.016,20]triaconta-1(29),2(30),4,15,17,20,22,25,27-nonaen-6-yl)phenyl]-2-methyl-propanoic Acid], for which the “DSLS 3D (100 μM ΔT)” value at NBD1 was “A (an ΔTagg value less than or equal to 5 °C is marked “A”)”. On CFTR, the “TECC (AUC, 10 μM)” value is on record as “B (a value between 12-20 is marked “B”)”.
Regarding `Cn1nc2nc1-c1cc(ccc1F)Oc1c(F)cc3[nH]ccc3c1CCS(=O)(=O)CC(C)(C)CCCC2(C)c1cccc(CC(C)(C)C(=O)O)c1` (single isomer, unassigned) [Compound 29A, 3-[3-(22,28-Difluoro-3,6,10,10-tetramethyl-12,12-dioxo-24-oxa-12lambda6-thia-3,4,19,30-tetrazapentacyclo[23.3.1.12,5.015,23.016,20]triaconta-1(29),2(30),4,15,17,20,22,25,27-nonaen-6-yl)phenyl]-2,2-dimethyl-propanoic acid], the “DSLS 3D (100 μM ΔT)” value on NBD1 is “C (a value greater than 10 °C and less than or equal to 25 °C is marked “C”)”. Moreover, the “TECC (AUC, 10 μM)” value at CFTR was “C (a value between 20 and 80 is marked “C”)”.

The values are drawn from patent publication US12649750B2, “Macrocyclic compounds, compositions, and methods of using thereof” (Sionna Therapeutics Inc., priority 2022, dated 2026).
